One test has as its target PI3Kbeta (Homo sapiens, UniProt P42338). Put plainly: Biochemical PI3Kbeta assay (neomycin SPA, lipid phosphorylation). To be noted: human recombinant GST-PI3K. How it is done:
(§1) The efficacy of the compounds according to the invention in the inhibition of PI3K-induced lipid phosphorylation can be investigated in the following binding assay. The assay combines scintillation proximity assay (SPA) technology (Amersham) with the ability of neomycin (a polycationic antibiotic) to bind phospholipids with high affinity and specificity. […] The coating of SPA beads with neomycin allows the detection of phosphorylated lipid substrates after incubation with recombinant PI3K and radioactive ATP in the same well by trapping the radioactive phospholipids by the SPA beads owing to their specific binding to neomycin. […] After incubation at room temperature for 120 minutes with gentle stirring, the reaction was stopped by addition of 200 μl of a solution comprising 250 μg of neomycin-coated PVT-SPA beads, ATP 60 mM and EDTA 6.2 mM in PBS. The assay is incubated at room temperature for a further 60 minutes with gentle stirring in order to enable binding of the phospholipids to the neomycin-SPA beads. After precipitation of the neomycin-coated PVT-SPA beads over 5 minutes at 1500×g, radioactive Ptdlns(3)P is quantified by scintillation counting in a Wallac Micro-Beta™ plate counter.

Another test concerns the target PI3Kalpha (Homo sapiens, UniProt P42336). Put plainly: Biochemical PI3Kalpha assay (neomycin SPA, lipid phosphorylation). To be noted: human recombinant GST-PI3K. As to the method: as §1
In test [1] the test system is PI3K-dependent phosphorylation of PKB at Serin 473 in PC3 cells. Put plainly: Cellular PI3K assay (P-S473-PKB Luminex assay in PC3 cells). The format is cell-based. To be noted: Homo sapiens, PC-3, 0.5 h; PC3 cells, 30 min, serum-free, P-S473-PKB; read-out: IC50 (cell). How it is done: The cellular assay for determination of the P-S473-PKB level is carried out as a Luminex assay in 96-well format in PC3 cells.
PC3 cells are sown out with 20,000 cells per well in 100 μl medium (45% […]/45% Ham's F12/10% FCS) and incubated on the following day for 30 min with a serial dilution of the test substance (7 concentrations) under serum-free conditions. The cells are subsequently lysed using 90 μl of lysis buffer (20 mM Tris/HCl pH 8.0, 150 mM NaCl, 1% NP40, 10% glycerol, 1% phosphatase inhibitor I, 1% phosphatase inhibitor II, 0.1% protease inhibitor cocktail III, 0.01% benzonase) per well, and the lysates are separated off from insoluble cell constituents by means of centrifugation through a 96-well filter plate (0.65 μm). The lysates are incubated overnight at 4° C. with shaking with Luminex beads to which an anti-total PKB antibody is coupled. The detection is carried out on the following day by addition of a P-S473-PKB antibody and a species-specific PE-labelled secondary antibody. The detection of P-S473-PKB is carried out by measurement in a Luminex100 instrument by determination of 100 events per cavity in a measurement time of 60 sec.

The target of a further test is DNA-PK protein complex (Homo sapiens, UniProt P78527). Briefly: Biochemical DNA-PK assay (FlashPlate). How it is done:
The kinase assay is carried out in […] microtitre FlashPlates®, coated with streptavidin. […] The reaction is stopped by addition of 50 μl/well of 200 mM EDTA. After incubation for 30 minutes, the liquids are removed at room temperature. Each well is washed three times with 100 μl of 0.9% NaCl solution. Non-specific reaction (blank) is determined using a proprietary kinase inhibitor (10 μM). The radioactivity is measured by means of a Topcount. […] Todd Eary, J. G. Schiro, H. Huang, L. E. Burgess, E. A. Kesicki, and J. Halbrook.

For test [2], the target named is recombinant PI3Kalpha (shortened form of the catalytic subunit) (Homo sapiens, UniProt P42336). Briefly: BIACORE PI3K binding assay (SPR). To be noted: 25° C. As to the method: SPR measurements of the binding affinities and binding kinetics on PI3Kalpha surfaces with the aid of Biacore systems. The experiments are carried out on a Biacore S51 “Compound Characterization” or a Biacore T100 instrument utilising the default application “Kinetics/Affinity” Experimental conditions: recombinant PI3Kalpha (shortened form of the catalytic subunit, missing N terminal from about 100 to 150 aa, Mw about 110 kDa, prepared by Proteros Biostructures GmbH) is immobilised on Biacore CM5 chips (25° C., flow rate: 10 μl/min, utilising amine coupling at pH 7.40—Biacore Standard protocol). PI3Kalpha is employed in concentrations between 10 and 25 μg/ml. Depending on the duration of the injection time, immobilisation levels from 1700 to 11000 RU are achieved. The substances to be measured are added in the form of a titration series. The substance concentration is doubled for each subsequent injection. 10 different substance concentrations which cover a 500-fold dilution range are usually injected. […] Kinetic titration experiments are carried out at 25° C. with a flow rate of 30 μl/min, the sample contact time is 180 s, and the dissociation time is 240 s in a running buffer (20 mM HEPES pH7.40, 150 mM NaCl, 5 mM MgCl2, 1 mM DTT, 0.1 mM EDTA, 0.05% Tween 20) comprising 2% of DMSO. Buffer injections (as double references) identical to the sample injections are carried out in each case at the beginning of a continuous series. Solvent correction cycles (eight correction points, 1.4%-2.8% DMSO) are carried out at equal intervals. In order to condition the surface, at least five start-up cycles (buffer injections) are carried out. Data points are collected with a sample rate of 10 Hz. Surface regeneration is carried out after each measurement cycle, apart from after the solvent correction runs. For this purpose, two times 100 mM NaHCO3 pH 8.60 are injected for 30 sec. Data sets are processed and analysed using the Biacore S51 Evaluation software, version 1.2.1, or Biacore T100 Evaluation, version 2.0. Solvent-corrected and double-referenced association and dissociation phase data are adapted to a simple 1:1 interaction model with mass transport limitations.
recombinant PI3Kalpha (shortened form of the catalytic subunit), sequence (P42336 151-1068 limits assumed): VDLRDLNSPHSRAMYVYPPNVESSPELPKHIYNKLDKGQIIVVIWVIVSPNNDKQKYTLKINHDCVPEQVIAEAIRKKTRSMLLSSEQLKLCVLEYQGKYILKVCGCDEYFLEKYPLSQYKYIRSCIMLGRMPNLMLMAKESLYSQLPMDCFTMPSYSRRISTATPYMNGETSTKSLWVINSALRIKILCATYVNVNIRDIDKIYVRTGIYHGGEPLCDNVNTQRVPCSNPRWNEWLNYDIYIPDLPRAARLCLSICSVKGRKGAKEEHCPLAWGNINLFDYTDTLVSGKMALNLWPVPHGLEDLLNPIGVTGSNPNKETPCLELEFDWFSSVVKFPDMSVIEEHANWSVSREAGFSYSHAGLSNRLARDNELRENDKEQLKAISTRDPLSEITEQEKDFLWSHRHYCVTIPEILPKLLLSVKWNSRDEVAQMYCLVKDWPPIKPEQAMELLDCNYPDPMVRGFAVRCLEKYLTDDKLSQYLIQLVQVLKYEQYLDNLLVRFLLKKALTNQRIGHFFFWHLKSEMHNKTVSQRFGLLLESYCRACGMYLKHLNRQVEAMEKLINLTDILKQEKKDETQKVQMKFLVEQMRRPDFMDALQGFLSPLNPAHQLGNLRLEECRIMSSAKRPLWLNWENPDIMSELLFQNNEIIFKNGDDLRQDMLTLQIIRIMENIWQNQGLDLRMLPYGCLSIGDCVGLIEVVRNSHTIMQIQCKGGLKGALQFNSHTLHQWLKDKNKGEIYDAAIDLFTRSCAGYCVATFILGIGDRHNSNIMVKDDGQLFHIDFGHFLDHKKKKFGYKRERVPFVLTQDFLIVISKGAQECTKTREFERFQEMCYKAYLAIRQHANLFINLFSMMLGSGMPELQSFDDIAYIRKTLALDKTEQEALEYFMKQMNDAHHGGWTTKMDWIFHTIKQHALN

SMILES strings stand for the structures.

What is called IC50 is the concentration needed to halve the response being measured. A word on the Kd: it is a measure of binding affinity in units of concentration.

PI3Kbeta, sequence (P42338 whole entry): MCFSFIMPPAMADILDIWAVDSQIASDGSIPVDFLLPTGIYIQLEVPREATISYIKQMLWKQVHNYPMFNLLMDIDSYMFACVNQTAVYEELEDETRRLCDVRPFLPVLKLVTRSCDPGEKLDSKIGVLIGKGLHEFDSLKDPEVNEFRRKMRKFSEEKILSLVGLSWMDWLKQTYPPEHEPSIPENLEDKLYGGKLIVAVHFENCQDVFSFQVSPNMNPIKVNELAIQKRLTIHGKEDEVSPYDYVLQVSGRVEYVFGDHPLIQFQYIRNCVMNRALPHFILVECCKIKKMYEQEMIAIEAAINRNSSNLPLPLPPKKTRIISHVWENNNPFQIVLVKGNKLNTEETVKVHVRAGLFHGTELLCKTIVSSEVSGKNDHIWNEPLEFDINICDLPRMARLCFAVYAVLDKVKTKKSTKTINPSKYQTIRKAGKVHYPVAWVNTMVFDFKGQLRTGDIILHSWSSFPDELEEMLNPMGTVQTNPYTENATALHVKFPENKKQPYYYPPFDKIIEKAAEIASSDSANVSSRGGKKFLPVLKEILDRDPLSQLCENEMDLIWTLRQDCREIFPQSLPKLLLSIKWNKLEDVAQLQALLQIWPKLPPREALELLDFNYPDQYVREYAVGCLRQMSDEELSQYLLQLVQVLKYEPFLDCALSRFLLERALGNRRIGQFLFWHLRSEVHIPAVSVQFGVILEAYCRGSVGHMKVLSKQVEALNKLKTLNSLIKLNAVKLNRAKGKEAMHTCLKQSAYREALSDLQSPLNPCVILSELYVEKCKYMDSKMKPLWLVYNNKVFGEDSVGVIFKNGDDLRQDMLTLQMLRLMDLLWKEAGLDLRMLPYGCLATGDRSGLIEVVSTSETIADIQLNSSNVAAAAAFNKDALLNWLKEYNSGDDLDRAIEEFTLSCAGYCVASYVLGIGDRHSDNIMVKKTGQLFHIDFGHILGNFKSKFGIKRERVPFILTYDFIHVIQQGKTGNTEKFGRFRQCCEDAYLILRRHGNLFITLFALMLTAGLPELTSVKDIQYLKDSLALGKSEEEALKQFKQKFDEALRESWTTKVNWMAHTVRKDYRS
PI3Kbeta, sequence (P27986 whole entry partner): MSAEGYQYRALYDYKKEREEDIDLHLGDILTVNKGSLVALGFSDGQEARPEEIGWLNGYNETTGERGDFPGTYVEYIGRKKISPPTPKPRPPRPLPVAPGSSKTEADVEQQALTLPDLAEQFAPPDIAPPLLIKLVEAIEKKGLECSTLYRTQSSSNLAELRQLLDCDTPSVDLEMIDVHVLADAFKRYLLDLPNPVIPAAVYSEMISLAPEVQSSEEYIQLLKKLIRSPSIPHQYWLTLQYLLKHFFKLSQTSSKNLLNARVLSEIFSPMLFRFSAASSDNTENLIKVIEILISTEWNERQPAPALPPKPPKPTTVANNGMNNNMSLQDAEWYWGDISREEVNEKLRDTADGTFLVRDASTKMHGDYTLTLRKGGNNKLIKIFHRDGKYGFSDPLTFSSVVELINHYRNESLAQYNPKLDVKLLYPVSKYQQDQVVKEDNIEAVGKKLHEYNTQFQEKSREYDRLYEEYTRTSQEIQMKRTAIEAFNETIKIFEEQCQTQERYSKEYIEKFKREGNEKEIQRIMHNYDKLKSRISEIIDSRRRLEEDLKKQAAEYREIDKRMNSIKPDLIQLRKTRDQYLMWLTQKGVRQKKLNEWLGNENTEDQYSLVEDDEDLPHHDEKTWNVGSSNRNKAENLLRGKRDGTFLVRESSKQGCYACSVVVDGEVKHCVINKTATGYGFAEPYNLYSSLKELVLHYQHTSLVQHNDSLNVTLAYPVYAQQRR
PI3Kalpha, sequence (P42336 whole entry): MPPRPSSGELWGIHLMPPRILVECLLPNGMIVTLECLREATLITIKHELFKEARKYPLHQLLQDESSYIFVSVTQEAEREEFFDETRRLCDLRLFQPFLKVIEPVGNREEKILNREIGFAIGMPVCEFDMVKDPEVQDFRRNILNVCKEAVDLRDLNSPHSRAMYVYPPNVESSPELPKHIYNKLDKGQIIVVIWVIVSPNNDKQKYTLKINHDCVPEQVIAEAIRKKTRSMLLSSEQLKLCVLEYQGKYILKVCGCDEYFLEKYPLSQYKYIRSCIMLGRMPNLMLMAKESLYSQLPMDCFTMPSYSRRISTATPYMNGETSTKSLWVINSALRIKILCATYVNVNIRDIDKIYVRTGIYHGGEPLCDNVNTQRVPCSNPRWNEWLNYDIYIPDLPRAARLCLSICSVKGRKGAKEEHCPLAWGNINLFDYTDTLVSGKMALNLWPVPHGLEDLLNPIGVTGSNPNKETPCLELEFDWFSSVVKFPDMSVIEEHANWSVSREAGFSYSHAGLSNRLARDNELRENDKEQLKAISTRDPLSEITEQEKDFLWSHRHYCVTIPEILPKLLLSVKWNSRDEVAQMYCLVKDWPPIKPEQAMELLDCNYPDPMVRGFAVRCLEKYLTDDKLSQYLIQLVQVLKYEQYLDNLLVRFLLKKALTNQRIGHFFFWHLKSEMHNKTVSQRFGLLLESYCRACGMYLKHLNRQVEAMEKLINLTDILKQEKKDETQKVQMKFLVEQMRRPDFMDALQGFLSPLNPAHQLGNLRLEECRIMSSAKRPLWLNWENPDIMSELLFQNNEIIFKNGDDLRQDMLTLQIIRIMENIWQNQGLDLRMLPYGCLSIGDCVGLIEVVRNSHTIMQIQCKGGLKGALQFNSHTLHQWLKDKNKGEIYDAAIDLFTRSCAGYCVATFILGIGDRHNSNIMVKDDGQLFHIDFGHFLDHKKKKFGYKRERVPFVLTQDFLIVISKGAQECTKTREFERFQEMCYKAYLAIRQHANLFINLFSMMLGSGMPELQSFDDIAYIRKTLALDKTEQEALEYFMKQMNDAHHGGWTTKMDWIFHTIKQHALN
PI3Kalpha, sequence (P27986 whole entry partner): as the sequence (P27986 whole entry partner) above

Consider `Cn1cc(-c2cc(-c3cnc(N)c(C(F)(F)F)c3)ccn2)n(-c2cccc(C#N)c2)c1=O` [Example A64, 3-[5-(6-Amino-5-trifluoromethyl-[3,4′]bipyridinyl-2′-yl)-3-methyl-2-oxo-2,3-dihydroimidazol-1-yl]benzonitrile], for which the IC50 on PI3Kbeta is 100 to 10000 nM; on PI3Kalpha, 100 to 10000 nM; in test [1] it was 100 to 10000 nM; on DNA-PK protein complex it was 0.1 to 100 nM. Also, the Kd in test [2] is 0.1 to 100 nM.
On to `Cn1cc(-c2cc(-c3cnc(N)c(C#N)c3)ccn2)n(-c2ccc(N3CCNCC3)c(C(F)(F)F)c2)c1=O` [Example A65, 6-Amino-2′-[1-methyl-2-oxo-3-(4-piperazin-1-yl-3-trifluoromethylphenyl)-2,3-dihydro-1H-imidazol-4-yl]-[3,4′]bipyridinyl-5-carbonitrile], for which the IC50 on PI3Kbeta lay within 100 to 10000 nM; on PI3Kalpha, 100 to 10000 nM; in test [1], 100 to 10000 nM; against DNA-PK protein complex it was 0.1 to 100 nM. In addition, in test [2], the Kd lay in the range of 0.1 to 100 nM.
Consider `CCc1cccc(-n2c(-c3cc(-c4cnc5[nH]ccc5c4)ccn3)cn(C)c2=O)c1` [Example A66, 3-(3-Ethylphenyl)-1-methyl-4-[4-(1H-pyrrolo[2,3-b]pyridin-5-yl)pyridin-2-yl]-1,3-dihydroimidazol-2-one], for which the IC50 (on PI3Kbeta; on PI3Kalpha; in test [1]; at DNA-PK protein complex) was more than 10000 nM each time. The Kd in test [2] was more than 10000 nM.
Take `Cn1cc(-c2cc(-c3cnc4[nH]ccc4c3)ccn2)n(-c2ccccc2C(F)(F)F)c1=O` [Example A67, 1-Methyl-4-[4-(1H-pyrrolo[2,3-b]pyridin-5-yl)pyridin-2-yl]-3-(2-trifluoromethylphenyl)-1,3-dihydroimidazol-2-one]: the concentration for half-maximal inhibition (IC50) fell in the range of 100 to 10000 nM at PI3Kbeta, 100 to 10000 nM at PI3Kalpha, 100 to 10000 nM in test [1] and 0.1 to 100 nM against DNA-PK protein complex. The Kd in test [2] fell in the range of 100 to 10000 nM.
`Cn1cc(-c2cc(-c3cnc4[nH]ccc4c3)ccn2)n(-c2ccccc2C#N)c1=O` [Example A69, 2-{3-Methyl-2-oxo-5-[4-(1H-pyrrolo[2,3-b]pyridin-5-yl)pyridin-2-yl]-2,3-dihydroimidazol-1-yl}benzonitrile]: the IC50 (on PI3Kbeta; at PI3Kalpha; in test [1]; against DNA-PK protein complex) was more than 10000 nM in each case. In test [2], the Kd was 100 to 10000 nM.
`Cn1cc(-c2cc(-c3cnc4[nH]ccc4c3)ccn2)n(-c2ccc(N3CCOCC3)c(C(F)(F)F)c2)c1=O` [Example A71, 1-Methyl-3-(4-morpholin-4-yl-3-trifluoromethylphenyl)-4-[4-(1H-pyrrolo[2,3-b]-pyridin-5-yl)pyridin-2-yl]-1,3-dihydroimidazol-2-one]: the IC50 fell in the range of 100 to 10000 nM at PI3Kbeta, 100 to 10000 nM at PI3Kalpha, 0.1 to 100 nM in test [1] and 0.1 to 100 nM at DNA-PK protein complex. The Kd in test [2] was in the range of 0.1 to 100 nM.
Regarding `CN1CCN(c2ccc(-n3c(-c4cc(-c5cnc6[nH]ccc6c5)ccn4)cn(C)c3=O)cc2C#N)CC1` [Example A83, 5-{3-Methyl-2-oxo-5-[4-(1H-pyrrolo[2,3-b]pyridin-5-yl)pyridin-2-yl]-2,3-dihydroimidazol-1-yl}-2-(4-methylpiperazin-1-yl)benzonitrile], the IC50 (at PI3Kbeta; at PI3Kalpha; in test [1]; at DNA-PK protein complex) was 100 to 10000 nM throughout. Further, the Kd in test [2] is 0.1 to 100 nM.
For the compound `Cn1cc(-c2cc(-c3cnc(N)c(-c4ccccc4)c3)ccn2)n(-c2ccc(C(C)(C)C#N)cc2)c1=O` [Example A84, 2-{4-[5-(6-Amino-5-phenyl-[3,4′]bipyridinyl-2′-yl)-3-methyl-2-oxo-2,3-dihydroimidazol-1-yl]phenyl}-2-methylpropionitrile], the IC50 lay in the range of 100 to 10000 nM on PI3Kbeta, 0.1 to 100 nM on PI3Kalpha, 100 to 10000 nM in test [1] and 0.1 to 100 nM at DNA-PK protein complex. Besides, the dissociation constant (Kd) in test [2] was 0.1 to 100 nM.
For the compound `Cc1cc2cc(-c3ccnc(-c4cn(C)c(=O)n4-c4ccc(N5CCN(C)CC5)c(C(F)(F)F)c4)c3)cnc2[nH]1` [Example A88, 1-Methyl-3-[4-(4-methylpiperazin-1-yl)-3-trifluoromethylphenyl]-4-[4-(2-methyl-1H-pyrrolo[2,3-b]pyridin-5-yl)pyridin-2-yl]-1,3-dihydroimidazol-2-one], the IC50 (at PI3Kbeta; at PI3Kalpha; in test [1]; against DNA-PK protein complex) was 100 to 10000 nM throughout. For the same compound, in test [2], the Kd lay within 100 to 10000 nM.
Turning to `CC(=O)N1CCN(c2ccc(-n3c(-c4cc(-c5ccc6[nH]ccc6c5)ccn4)cn(C)c3=O)cc2C(F)(F)F)CC1` [Example A89, 3-[4-(4-Acetylpiperazin-1-yl)-3-trifluoromethylphenyl]-4-[4-(1H-indol-5-yl)pyridin-2-yl]-1-methyl-1,3-dihydroimidazol-2-one], the IC50 is more than 10000 nM on PI3Kbeta, 100 to 10000 nM at PI3Kalpha, 100 to 10000 nM in test [1] and 100 to 10000 nM against DNA-PK protein complex. Further, the Kd in test [2] is 100 to 10000 nM.
Consider `Cn1cc(-c2cc(-c3cnc4[nH]ccc4c3)ccn2)n(-c2cccc(Oc3ccccc3)c2)c1=O` [Example A90, 1-Methyl-3-(3-phenoxyphenyl)-4-[4-(1H-pyrrolo[2,3-b]pyridin-5-yl)pyridin-2-yl]-1,3-dihydroimidazol-2-one], for which the IC50 on PI3Kbeta fell in the range of 100 to 10000 nM; at PI3Kalpha, 100 to 10000 nM; in test [1], 0.1 to 100 nM; on DNA-PK protein complex it was 0.1 to 100 nM. Moreover, in test [2], the Kd is 0.1 to 100 nM.
As to `Cn1cc(-c2cc(-c3cnc(N)c(C(F)(F)F)c3)ccn2)n(-c2ccc(F)c(C(F)(F)F)c2)c1=O` [Example A97, 4-(6-Amino-5-trifluoromethyl-[3,4′]bipyridinyl-2′-yl)-3-(4-fluoro-3-trifluoromethyl-phenyl)-1-methyl-1,3-dihydroimidazol-2-one], the IC50 (at PI3Kbeta; at PI3Kalpha; in test [1]; against DNA-PK protein complex) was 100 to 10000 nM in each case. Further, the Kd in test [2] was in the range of 100 to 10000 nM.

Source of the values: patent US8802866B2, “Pyridinylimidazolone derivatives for the inhibition of PI3 kinases” (Merck Patent GmbH, priority 2009, dated 2014).
